Numbered stars: 1 amine (or outer) side, 2 acyl side, 3 side chain; on linkers, the order of the positions; unused ones are H or OH. Square brackets hold non-standard residues; d marks the D form. Peptide text beside a SMILES is read from it. * marks the point of attachment. ξ: configuration not given here. X1 = CC(C)[C@@H](C(=O)[*:2])N(CCCCCCCCO[*:3])[*:1]; Desaminotyrosyl = O=C(CCc1ccc(O)cc1)*; Thr(3ξ) = CC(O)[C@H](N)C(=O)O

The term IC50 denotes the concentration needed to halve the response being measured.

In assay [1] the target is T1, Ribonucleoside-diphosphate reductase large subunit (Herpes simplex virus (type 1 / strain 17), UniProt P08543).
T1 sequence (P08543 whole entry): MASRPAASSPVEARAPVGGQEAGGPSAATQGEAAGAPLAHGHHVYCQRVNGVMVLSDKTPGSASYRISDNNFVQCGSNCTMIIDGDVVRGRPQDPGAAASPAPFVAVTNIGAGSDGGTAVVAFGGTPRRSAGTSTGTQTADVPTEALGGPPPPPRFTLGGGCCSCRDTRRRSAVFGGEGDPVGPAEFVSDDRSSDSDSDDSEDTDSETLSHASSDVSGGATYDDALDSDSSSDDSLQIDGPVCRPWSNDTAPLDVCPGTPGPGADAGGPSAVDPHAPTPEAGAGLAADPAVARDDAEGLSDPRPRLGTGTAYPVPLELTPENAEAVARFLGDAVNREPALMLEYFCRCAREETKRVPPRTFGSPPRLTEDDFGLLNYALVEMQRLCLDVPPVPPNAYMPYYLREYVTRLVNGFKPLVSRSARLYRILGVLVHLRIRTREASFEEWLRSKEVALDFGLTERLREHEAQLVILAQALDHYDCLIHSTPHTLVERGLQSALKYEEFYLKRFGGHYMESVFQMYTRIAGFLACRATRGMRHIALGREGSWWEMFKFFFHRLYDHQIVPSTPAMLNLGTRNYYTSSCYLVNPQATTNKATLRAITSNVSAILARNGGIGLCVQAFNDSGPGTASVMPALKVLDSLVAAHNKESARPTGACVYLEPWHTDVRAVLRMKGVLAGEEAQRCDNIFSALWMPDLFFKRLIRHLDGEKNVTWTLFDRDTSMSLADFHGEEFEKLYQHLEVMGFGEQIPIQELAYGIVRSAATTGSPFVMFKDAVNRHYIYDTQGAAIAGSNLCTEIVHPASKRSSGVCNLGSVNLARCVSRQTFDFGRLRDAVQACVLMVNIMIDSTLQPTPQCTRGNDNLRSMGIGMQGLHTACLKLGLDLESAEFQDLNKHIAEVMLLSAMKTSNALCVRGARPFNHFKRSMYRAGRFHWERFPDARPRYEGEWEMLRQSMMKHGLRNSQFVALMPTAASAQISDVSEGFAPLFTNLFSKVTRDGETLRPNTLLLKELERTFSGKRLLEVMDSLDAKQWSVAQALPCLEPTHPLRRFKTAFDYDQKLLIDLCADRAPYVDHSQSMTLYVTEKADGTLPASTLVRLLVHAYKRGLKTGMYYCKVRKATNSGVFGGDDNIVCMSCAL
Put plainly: Inhibitory activity was determined against HSV-1 Ribonucleoside diphosphate reductase. More on the design: species or system Human alphaherpesvirus 1.

The target of assay [2] is T1, Ribonucleoside-diphosphate reductase large subunit. Put plainly: Inhibitory activity against HSV-1 Ribonucleoside diphosphate reductase was determined. More on the design: species or system Human alphaherpesvirus 1.
A short description of assay [3]: Relative inhibition compared to HSV-R2-(329-337) was determined; Inactive at 2 mM.
Assay [4] can be described thus: Relative inhibition compared to HSV-R2-(329-337) was determined; Inactive at 1 mM.

For the compound H-YAGAVANDL-OH, the figures for the IC50 in assay [1] and in assay [2] were 760 µM and 60 µM, respectively.
With `CC(C)C[C@H](NC(=O)[C@H](CC(=O)O)NC(=O)[C@H](CC(N)=O)NC(=O)[C@@H](NC(=O)[C@@H](NC(=O)[C@H](C)NC(=O)CNC(=O)[C@H](C)NC(=O)[C@H](Cc1ccc(O)cc1)NC(=O)CCCCCCCN)C(C)C)C(C)C)C(=O)O`, the figures for the IC50 in assay [1] and in assay [2] were 12 µM and 44 µM, respectively.
As for H-YAGPVVNDL-OH, it took 44 µM to reach half-maximal inhibition in assay [2] (IC50).
On to H-YAGAAVNDL-OH, for which the Relative inhibition in assay [3] worked out at 0%.
Regarding H-YAGAVVNDI-OH, the results for the IC50 in assay [1] and in assay [2] were 153 µM and 55 µM, respectively.
H-YAGAVV-OH displayed a Relative inhibition in assay [3] of 0%.
In assay [4], H-YAGAVVNDA-OH returned a Relative inhibition of 0%.
As for H-ECRSTSYAGAVVNDL-OH, the results for the IC50 in assay [1] and in assay [2] were 42 µM and 60 µM, respectively.
For H-LAGAVVNDL-OH the same measures were 211 µM and 211 µM.
For H-YAGAVVNDY-OH, the Relative inhibition in assay [4] came to 0%.
Consider `CC(C)C[C@H](NC(=O)[C@H](CC(=O)O)NC(=O)[C@H](CC(N)=O)NC(=O)[C@@H](NC(=O)[C@@H](NC(=O)[C@H](C)NC(=O)CNC(=O)[C@H](C)NC(=O)[C@H](Cc1ccc(O)cc1)NC(=O)[C@H](CO)NC(=O)[C@@H](NC(=O)[C@H](CO)NC(=O)[C@H](CCCN=C(N)N)NC(=O)[C@H](CS)NC(=O)[C@H](CCC(=O)O)NC(=O)[C@H](Cc1ccccc1)NC(=O)[C@H](Cc1ccccc1)NC(=O)[C@H](CC(=O)O)NC(=O)[C@@H](N)[C@@H](C)O)[C@@H](C)O)C(C)C)C(C)C)C(=O)O`, for which the IC50 was 15 µM in assay [1] and 55 µM in assay [2].
On to H-YAVVNDL-OH, for which the IC50 in assay [2] was 60 µM.
In the case of H-STSYAGAVVNDL-OH, the half-maximal inhibitory concentration (IC50) in assay [1] amounted to 29 µM; in assay [2] it was 60 µM.
In assay [4], H-YAGAVVNAL-OH displayed a Relative inhibition of 0%.
On to H-YAGTVVNDL-OH, for which the IC50 was determined as 29 µM in assay [1] and 44 µM in assay [2].
Ac-YAGVVNDL-OH came in with an IC50 in assay [2] of 60 µM.
As to H-AGAVVNDL-OH, the IC50 was 283 µM in assay [1] and 36 µM in assay [2].
In turn, `COc1ccc(C[C@H](NC(C)=O)C(=O)N[C@@H](C)C(=O)NCC(=O)N[C@@H](C)C(=O)N[C@H](C(=O)N[C@H](C(=O)N[C@@H](CC(N)=O)C(=O)N[C@@H](CC(=O)O)C(=O)N[C@@H](CC(C)C)C(=O)O)C(C)C)C(C)C)cc1` yielded an IC50 in assay [2] of 60 µM.
In assay [3], H-YAGAVVN-OH returned a Relative inhibition of 0%.
Take H-YAPAVVNDL-OH: the IC50 worked out at 37 µM in assay [1] and 44 µM in assay [2].
`CC(=O)N[C@@H](Cc1ccc(O)cc1)C(=O)N[C@H](C)C(=O)NCC(=O)N[C@@H](C)C(=O)N[C@H](C(=O)N[C@H](C(=O)N[C@@H](CC(N)=O)C(=O)N[C@@H](CC(=O)O)C(=O)N[C@@H](CC(C)C)C(=O)O)C(C)C)C(C)C` registered an IC50 in assay [2] of 60 µM. This lies in the double-digit micromolar range.
As for H-FAGAVVNDL-OH, the results for the IC50 in assay [1] and in assay [2] were 90 µM and 55 µM, respectively.
The corresponding values for `CC[C@H](C)[C@H](NC(=O)[C@@H](NC(=O)CNC(=O)[C@H](C)NC(=O)CCc1ccc(O)cc1)C(C)O)C(=O)N[C@@H](CC(N)=O)C(=O)N[C@@H](CC(=O)O)C(=O)N[C@@H](CC(C)C)C(=O)O` (some centres not stated) (Desaminotyrosyl-AG[Thr(3ξ)]INDL-OH) are 13 µM and 13 µM.
In assay [2], Ac-YGAVVNDL-OH gave an IC50 of 60 µM.
Regarding `CC(=O)N[C@H](C(=O)N[C@H](C(=O)N[C@@H](CC(N)=O)C(=O)N[C@@H](CC(=O)O)C(=O)N[C@@H](CC(C)C)C(=O)O)C(C)C)C(C)C`, the IC50 in assay [1] was found to be 400 µM; in assay [2], 60 µM.
As for H-YAGAVINDL-OH, the results for the 50% inhibitory concentration (IC50) in assay [1] and in assay [2] were 33 µM and 49 µM, respectively.
Compound H-YAGAVVND-OH registered a Relative inhibition in assay [3] of 0%.
For H-YAGAVVNDV-OH, the IC50 in assay [1] was determined as 846 µM; in assay [2], 55 µM.
For `CC(=O)N[C@@H](Cc1ccc(O)cc1)C(=O)N[C@@H](C)C(=O)NCC(=O)N[C@@H](C)C(=O)N[C@H](C(=O)N[C@H](C(=O)N[C@@H](CC(N)=O)C(=O)N[C@@H](CC(=O)O)C(=O)N[C@@H](CC(C)C)C(=O)O)C(C)C)C(C)C`, the IC50 in assay [2] was 60 µM.
As for H-YAGAVVNDF-OH, the Relative inhibition in assay [4] is 0%.
Compound `CC(=O)N[C@@H](Cc1ccc(O)cc1)C(=O)N[C@@H](C)C(=O)NCC(=O)N[C@@H](C)C(=O)N[C@H](C(=O)N[C@H](C(=O)N[C@@H](CC(N)=O)C(=O)N[C@@H](CC(=O)O)C(=O)N[C@@H](CC(C)C)C(N)=O)C(C)C)C(C)C` came in with a half-inhibitory concentration (IC50) in assay [2] of 60 µM.
Turning to `CSCC[C@H](NC(=O)[C@@H](NC(=O)[C@@H](N)Cc1ccc(O)cc1)[C@@H](C)O)C(=O)N[C@@H](CC(C)C)C(=O)N[C@H](C(=O)N[C@H](C(=O)N[C@@H](CC(=O)O)C(=O)N[C@@H](CC(=O)O)C(=O)N[C@@H](CC(C)C)C(=O)O)C(C)C)C(C)C`, the IC50 in assay [1] came to 110 µM; in assay [2], 36 µM.
The corresponding values for `CC(C)C[C@H](NC(=O)[C@H](CC(=O)O)NC(=O)[C@H](CC(N)=O)NC(=O)[C@@H](NC(=O)[C@@H](NC(=O)[C@H](C)NC(=O)CNC(=O)[C@H](C)NC(=O)CCc1ccc(O)cc1)C(C)C)C(C)C)C(=O)O` (Desaminotyrosyl-AGAVVNDL-OH) are 33 µM and 60 µM.
With `CC(C)C[C@H](NC(=O)[C@H](CC(=O)O)NC(=O)[C@H](CC(N)=O)NC(=O)[C@@H](NC(=O)[C@@H](NCCCCCCCCOC(=O)[C@@H](N)Cc1ccc(O)cc1)C(C)C)C(C)C)C(=O)O` (H-[X1](Tyr)VNDL-OH), the IC50 in assay [1] and in assay [2] was 63 µM each time.
Turning to H-YAGTVINDL-OH, inhibition in assay [2] was half-maximal at 60 µM (IC50). This lies in the double-digit micromolar range.
In the case of H-YGAVVNDL-OH, the values for the IC50 in assay [1] and in assay [2] were 330 µM and 60 µM, respectively.
With H-KYAGAVVNDL-OH, in assay [2], the midpoint of inhibition, the IC50, lay at 55 µM.
H-YAGAVVNDLK-OH: the IC50 in assay [1] is 458 µM; in assay [2], 55 µM.
Regarding H-AAGAVVNDL-OH, the IC50 in assay [1] and in assay [2] was 280 µM each time.
As to H-YAGAVVADL-OH, the Relative inhibition in assay [4] came to 0%.
On to `CC(=O)N[C@H](Cc1ccc(O)cc1)C(=O)N[C@@H](C)C(=O)NCC(=O)N[C@@H](C)C(=O)N[C@H](C(=O)N[C@H](C(=O)N[C@@H](CC(N)=O)C(=O)N[C@@H](CC(=O)O)C(=O)N[C@@H](CC(C)C)C(=O)O)C(C)C)C(C)C`, for which the IC50 in assay [2] was found to be 60 µM. That is a double-digit micromolar value.
In assay [3], `CC(C)C[C@H](NC(=O)[C@H](CC(=O)O)NC(=O)[C@H](CC(N)=O)NC(=O)[C@@H](N)C(C)C)C(=O)O` (H-VNDL-OH) came in with a Relative inhibition of 0%.
The compound `CC(C)C[C@H](NC(=O)[C@H](CC(=O)O)NC(=O)[C@H](CC(N)=O)NC(=O)[C@@H](NC(=O)[C@@H](NC(=O)[C@H](C)NC(=O)CNC(=O)[C@H](C)NC(=O)[C@@H](N)Cc1ccc(O)cc1)C(C)C)C(C)C)C(N)=O` showed an IC50 in assay [2] of 60 µM.
Take H-HAGAVVNDL-OH: the values for the IC50 in assay [1] and in assay [2] were 323 µM and 55 µM, respectively.
For H-GAVVNDL-OH the same measures were 225 µM and 225 µM.
In assay [3], `CC(C)C[C@H](NC(=O)[C@H](CC(=O)O)NC(=O)[C@@H](N)CC(N)=O)C(=O)O` (H-Asn-Asp-Leu-OH) had a Relative inhibition of 0%.
As for H-AVVNDL-OH, the concentration for half-maximal inhibition (IC50) in assay [1] and in assay [2] was 190 µM in each case.
With `COc1ccc(C[C@H](N)C(=O)N[C@@H](C)C(=O)NCC(=O)N[C@@H](C)C(=O)N[C@H](C(=O)N[C@H](C(=O)N[C@@H](CC(N)=O)C(=O)N[C@@H](CC(=O)O)C(=O)N[C@@H](CC(C)C)C(=O)O)C(C)C)C(C)C)cc1`, half-maximal inhibition in assay [2] (IC50) was put at 60 µM. That is a double-digit micromolar value.
